According to patent publication US4547371A, “Substituted cephalosporin sulfones as anti-inflammatory and anti-degenerative agents” (Merck & Co., Inc., priority 1983, dated 1985):

target: T1, Human Polymorphonuclear Leukocyte Elastase (Homo sapiens, UniProt P08246); assay: Inhibition of human polymorphonuclear leukocyte elastase via hydrolysis of N-t-Boc-alanyl-alanyl-prolyl-alanine-p-nitroanilide; format: biochemical; conditions: effective dosage for 50% inhibition of the enzyme activity 2 minutes after zero time; crude human PMN extract, Boc-AAPAN substrate, pH 7.5, 410 mμ; read-out: ED50 (the source's name) (converted)
T1 construct: Crude extract of human polymorphonuclear leukocytes (PMN) containing elastase activity; endogenous in cells; host or cells: human polymorphonuclear leukocytes (crude extract)
T1 sequence (P08246 30-247 limits assumed): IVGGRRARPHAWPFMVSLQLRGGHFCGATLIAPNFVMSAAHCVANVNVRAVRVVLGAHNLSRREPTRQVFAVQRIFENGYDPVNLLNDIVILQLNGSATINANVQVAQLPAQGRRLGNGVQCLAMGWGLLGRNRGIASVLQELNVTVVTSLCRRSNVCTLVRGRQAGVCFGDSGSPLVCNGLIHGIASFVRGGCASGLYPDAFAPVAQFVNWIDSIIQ
Protocol: Protocol--Enzyme Assays for the Inhibition of Human Polymorphonuclear Leukocyte Elastase Via Hydrolysis of N-t-Boc-alanyl-alanyl-prolylalanine-p-nitroanilide
0.05M TES (N-tris[hydroxymethyl]methyl-2-amino-ethanesulfonic acid) Buffer, pH 7.5.
0.2 mM N-t-Boc-alanyl-alanyl-prolyl-alanine-p-nitroanilide (Boc-AAPAN).
To prepare substrate, the solid (m.w. 550) was first dissolved in 10.0 ml DMSO. Buffer at pH 7.5 was then added to a final volume of 100 ml.
Crude extract of human polymorphonuclear leukocytes (PMN) containing elastase activity.
Inhibitors (cephalosporin sulfone esters) to be tested dissolved in DMSO just before use.
To 1.0 ml of 0.2 mM Boc-AAPAN in a cuvette, 0.01-0.1 ml of DMSO with or without inhibitor was added. After mixing, a measurement was taken at 410 mμ to detect any spontaneous hydrolysis due to presence of test compound. 0.05 Milliliters of PMN extract was then added and the ΔOD /min at 410 mμ was measured and recorded. Beckman model 35 spectrophotometer was used.
Results were reported as ED50, i.e., effective dosage in micrograms per milliliter (μg/ml) for 50% inhibition of the enzyme activity 2 minutes after zero time.
The elastase activity in the crude PMN extract may vary from one preparation to another. A control of each new batch is run, and the volume added in the assay procedure is adjusted according to activity.

| IC50 [nM] | Compound |
| --- | --- |
| 61.7 | O=C(OCc1ccccc1)C1=C(C(F)(F)F)CS(=O)(=O)[C@@H]2[C@@H](NC(=O)C(F)(F)F)C(=O)N12 (relative stereo) [CF3 CONH / CF3 / OCH2 .phi., Benzyl 3-trifluoromethyl-7α-trifluoromethylcarbonylamino-8-oxo-5-thia-1-azabicyclo[4.2.0]oct-2-ene-2-carboxylate-5,5-dioxide] |
| 1770 | CC(C)(C)OC(=O)C1=C(C(F)(F)F)CS(=O)(=O)[C@@H]2[C@@H](NC(=O)C(F)(F)F)C(=O)N12 (relative stereo) [CF3 CONH / CF3 / OtBu, t-Butyl 3-trifluoromethyl-7α-trifluoromethylcarbonylamino-8-oxo-5-thia-1-azabicyclo[4.2.0]oct-2-ene-2-carboxylate-5,5-dioxide] |
| 81.6 | CC(=O)OCC1=C(C(=O)OCc2ccccc2)N2C(=O)[C@H](NC(=O)C(F)(F)F)[C@H]2S(=O)(=O)C1 [NHCOCF3 / CH2 OCOCH3 / OCH2 .phi., Benzyl 3-acetyloxymethyl-7α-trifluoromethylcarbonylamino-8-oxo-5-thia-1-azabicyclo[4.2.0]oct-2-ene-2-carboxylate-5,5-dioxide] |
| 663 | COC(=O)N[C@H]1C(=O)N2C(C(=O)OCc3ccccc3)=C(COC(C)=O)CS(=O)(=O)[C@H]12 [NHCOOCH3 / CH2 OCOCH3 / OCH2 .phi., benzyl 3-acetyloxymethyl-7α-methoxycarbonylamino-8-oxo-5-thia-1-azabicyclo[4.2.0]oct-2-ene-2-carboxylate-5,5-dioxide] |
